Experimental data published in patent publication US10285382B2 (priority 2017, dated 2019).
Read-outs that look alike come from different tables or passages of the source.

Key:
[1] = tested on: flies and other unwanted insects
From the text: In addition to the incoming eggs, the egg room includes excess shipping boxes and pallets.

E. coli K12 = details: for % Reduction vs. Control / Log10 reduction / Log10 reduction vs. Control / Percent reduction: DHP (+)
[2] = tested on: MS2 Bacteriophage ATCC 15597-B1; details: DHP (+); 1 hour
salmonellae = details: egg cooler conditions; during the trial

## OO [DHP, dry hydrogen peroxide]
[1]; egg room, DHP between 0.1 ppm and 0.2 ppm
  elimination of flies and other unwanted insects: sufficient to eliminate
[1]; incorporation of DHP into the egg room
  elimination of flies and other unwanted insects, both flying and non-flying: eliminates
[1]; within the first couple days of applying DHP to the poultry space
  flying insects in the facility: virtually eliminated
E. coli K12; 1 hour
  % Reduction vs. Control: 99.8%
  Log10 reduction: >4.78
  Log10 reduction vs. Control: 2.82
  Percent reduction: >99.9984%
E. coli K12; 2 hours
  % Reduction vs. Control: 98.1%
  Log10 reduction: >4.79
  Log10 reduction vs. Control: 1.71
  Percent reduction: >99.9984%
E. coli K12; within one hour
  aerosolized bacteria in the DHP treated space: essentially eliminated
[2]
  % Reduction vs. Control: 99.8%
  Log10 reduction: 3.54
  Log10 reduction vs. Control: 2.70
  Percent reduction: 99.97%
salmonellae
  growth of Salmonella on the XLT-4: No growth
